Results reported in article PMC12340637, “Transport of Small Aliphatic Amines by Polyspecific Solute Carriers: Deciphering Structure–Function Relationships” (ACS Pharmacology & Translational Science, 2025).
Read-outs that look alike come from different tables or passages of the source. Marks after values point to notes of the source that are not given here.

Experiments:
[1] = biological target: T1, MATE1 (SLC47A1) (Homo sapiens, UniProt Q96FL8); test: Cellular uptake into MATE1-overexpressing HEK293 cells vs EV control cells (HPLC-MS/MS); settings: for uptake ratio MATE1 (transporter-overexpressing cells over EV control cells): mean (±SD, N): 2.5 μM substrate, 1 min, 30 mM NH4Cl preincubation, HEK293; for substrate activity at MATE1 (in words): uptake ratio ≥2 = notable transport; for K m (±SEM) / v max (±SEM): MATE1, net uptake, Michaelis–Menten
T1 sequence (Q96FL8 1-570): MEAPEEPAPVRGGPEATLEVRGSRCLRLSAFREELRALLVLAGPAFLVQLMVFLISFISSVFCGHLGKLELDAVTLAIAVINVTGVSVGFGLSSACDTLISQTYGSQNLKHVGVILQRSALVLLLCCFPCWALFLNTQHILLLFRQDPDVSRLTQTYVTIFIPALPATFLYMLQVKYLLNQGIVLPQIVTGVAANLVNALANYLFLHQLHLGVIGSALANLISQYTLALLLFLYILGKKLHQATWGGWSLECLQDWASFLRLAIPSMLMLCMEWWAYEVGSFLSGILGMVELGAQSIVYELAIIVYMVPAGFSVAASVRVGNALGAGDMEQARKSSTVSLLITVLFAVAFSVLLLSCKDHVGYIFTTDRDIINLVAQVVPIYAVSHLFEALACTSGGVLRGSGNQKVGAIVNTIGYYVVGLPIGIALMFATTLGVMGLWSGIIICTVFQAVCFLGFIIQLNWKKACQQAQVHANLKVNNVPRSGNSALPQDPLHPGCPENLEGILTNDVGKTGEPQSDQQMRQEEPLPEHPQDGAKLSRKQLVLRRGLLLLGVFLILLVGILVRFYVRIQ

[2] = biological target: T2, OCT3 (SLC22A3) (Homo sapiens, UniProt O75751); test: Cellular uptake into OCT3-overexpressing HEK293 cells vs EV control cells (HPLC-MS/MS); settings: for uptake ratio OCT3 (transporter-overexpressing cells over EV control cells): mean (±SD, N): 2 min, HEK293; for K m (±SEM) / v max (±SEM): OCT3, net uptake, Michaelis–Menten
T2 sequence (O75751 1-556): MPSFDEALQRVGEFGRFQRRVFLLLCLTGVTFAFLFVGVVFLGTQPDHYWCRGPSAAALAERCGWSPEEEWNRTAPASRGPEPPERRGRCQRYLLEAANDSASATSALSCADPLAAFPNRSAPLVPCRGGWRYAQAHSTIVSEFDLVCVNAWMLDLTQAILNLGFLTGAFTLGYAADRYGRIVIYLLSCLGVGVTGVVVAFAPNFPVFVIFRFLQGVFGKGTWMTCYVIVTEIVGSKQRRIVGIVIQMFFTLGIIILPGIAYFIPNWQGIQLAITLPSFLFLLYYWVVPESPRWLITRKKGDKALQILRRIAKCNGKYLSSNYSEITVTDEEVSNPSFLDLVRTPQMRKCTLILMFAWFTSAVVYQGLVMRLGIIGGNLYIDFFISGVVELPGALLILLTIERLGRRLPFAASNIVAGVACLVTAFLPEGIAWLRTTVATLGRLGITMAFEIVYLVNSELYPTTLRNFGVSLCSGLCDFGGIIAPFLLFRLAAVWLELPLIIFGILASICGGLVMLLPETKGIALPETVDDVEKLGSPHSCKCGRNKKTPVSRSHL

[3] = biological target: MATE2-K (SLC47A2) (Homo sapiens, UniProt Q86VL8); test: Cellular uptake into MATE2-K-overexpressing HEK293 cells vs EV control cells (HPLC-MS/MS); settings: for uptake ratio MATE2K (transporter-overexpressing cells over EV control cells): mean (±SD, N): 2.5 μM substrate, 1 min, 30 mM NH4Cl preincubation, HEK293
MATE2-K (SLC47A2), sequence (Q86VL8 1-566 isoform Q86VL8-3): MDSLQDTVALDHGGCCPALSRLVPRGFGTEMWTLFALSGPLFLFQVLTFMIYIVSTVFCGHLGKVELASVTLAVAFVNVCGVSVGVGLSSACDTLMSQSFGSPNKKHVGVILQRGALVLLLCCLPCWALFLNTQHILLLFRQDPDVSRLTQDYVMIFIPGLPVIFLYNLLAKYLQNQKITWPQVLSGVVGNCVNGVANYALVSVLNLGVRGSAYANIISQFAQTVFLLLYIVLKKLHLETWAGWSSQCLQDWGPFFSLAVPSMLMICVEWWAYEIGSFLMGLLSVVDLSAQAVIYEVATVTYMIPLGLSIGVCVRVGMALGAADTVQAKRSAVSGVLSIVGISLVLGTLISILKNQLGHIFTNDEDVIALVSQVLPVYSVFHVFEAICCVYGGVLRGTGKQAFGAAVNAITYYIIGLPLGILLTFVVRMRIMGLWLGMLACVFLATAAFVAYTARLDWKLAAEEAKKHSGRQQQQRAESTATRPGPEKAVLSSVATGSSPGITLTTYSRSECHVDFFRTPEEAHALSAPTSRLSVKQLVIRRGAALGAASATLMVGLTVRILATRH

[4] = biological target: T3, OCT1 (SLC22A1) (Homo sapiens, UniProt O15245); test: Cellular uptake into OCT1-overexpressing HEK293 cells vs EV control cells (HPLC-MS/MS); settings: for uptake ratio OCT1 (transporter-overexpressing cells over EV control cells): mean (±SD, N): 2 min, HEK293; for K m (±SEM) / v max (±SEM): OCT1, net uptake, Michaelis–Menten
T3 sequence (O15245 1-554): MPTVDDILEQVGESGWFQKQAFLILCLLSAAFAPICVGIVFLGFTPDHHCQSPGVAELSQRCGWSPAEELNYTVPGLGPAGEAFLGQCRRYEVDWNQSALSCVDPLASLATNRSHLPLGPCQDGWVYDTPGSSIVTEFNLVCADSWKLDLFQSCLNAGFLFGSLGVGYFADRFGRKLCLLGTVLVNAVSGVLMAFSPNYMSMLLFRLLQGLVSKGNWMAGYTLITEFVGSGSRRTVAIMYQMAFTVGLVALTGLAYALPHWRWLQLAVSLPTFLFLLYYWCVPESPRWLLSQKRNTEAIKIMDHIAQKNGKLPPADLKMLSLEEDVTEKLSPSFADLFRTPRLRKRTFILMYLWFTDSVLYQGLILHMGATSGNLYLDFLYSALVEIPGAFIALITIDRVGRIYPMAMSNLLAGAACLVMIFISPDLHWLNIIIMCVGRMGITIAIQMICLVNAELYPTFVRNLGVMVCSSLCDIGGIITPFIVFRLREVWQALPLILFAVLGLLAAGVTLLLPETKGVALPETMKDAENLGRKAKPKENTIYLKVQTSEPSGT

[5] = biological target: T4, OCT2 (SLC22A2) (Homo sapiens, UniProt O15244); test: Cellular uptake into OCT2-overexpressing HEK293 cells vs EV control cells (HPLC-MS/MS); settings: for uptake ratio OCT2 (transporter-overexpressing cells over EV control cells): mean (±SD, N): 2 min, HEK293; for substrate activity at OCT2 (in words): uptake ratio ≥2 = notable transport; for v max (±SEM) / K m (±SEM): OCT2, net uptake, Michaelis–Menten
T4 sequence (O15244 1-555): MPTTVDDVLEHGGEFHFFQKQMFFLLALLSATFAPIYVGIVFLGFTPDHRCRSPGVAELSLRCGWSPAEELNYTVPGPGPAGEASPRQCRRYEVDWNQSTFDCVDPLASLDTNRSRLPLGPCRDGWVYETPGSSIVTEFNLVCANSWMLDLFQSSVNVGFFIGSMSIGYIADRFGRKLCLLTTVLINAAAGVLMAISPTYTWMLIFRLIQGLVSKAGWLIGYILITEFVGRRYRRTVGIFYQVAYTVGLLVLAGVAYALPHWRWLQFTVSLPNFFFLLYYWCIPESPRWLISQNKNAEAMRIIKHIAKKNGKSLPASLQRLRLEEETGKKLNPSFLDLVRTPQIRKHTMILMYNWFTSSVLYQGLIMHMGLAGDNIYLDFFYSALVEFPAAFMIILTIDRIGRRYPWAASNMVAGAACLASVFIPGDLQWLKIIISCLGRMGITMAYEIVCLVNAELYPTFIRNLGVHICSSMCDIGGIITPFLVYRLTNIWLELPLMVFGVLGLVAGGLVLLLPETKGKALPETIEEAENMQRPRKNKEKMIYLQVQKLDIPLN

[6] = uptake ratio ≥2 = notable transport

SMILES | uptake ratio MATE1 (transporter-overexpressing cells over EV control cells): mean (±SD, N) [1] | uptake ratio OCT3 (transporter-overexpressing cells over EV control cells): mean (±SD, N) ([2]; 10 μM substrate) | uptake ratio MATE2K (transporter-overexpressing cells over EV control cells): mean (±SD, N) [3] | uptake ratio OCT1 (transporter-overexpressing cells over EV control cells): mean (±SD, N) ([4]; 10 μM substrate) | uptake ratio OCT2 (transporter-overexpressing cells over EV control cells): mean (±SD, N) ([5]; 10 μM substrate) | v max (±SEM) [5] | further results
CC(C)CN [isobutylamine] | 0.9 (0.2, 4) | 0.7 (0.2, 4) ^a | 1.2 (0.3, 4) | 1.1 (0.2, 4) | 3.4 (1.2, 4) ^a |  | 
NCCCCNCCCN [spermidine-(butyl-d8)] | 1.0 (0.4, 3) |  | 0.8 (0.1, 3) |  |  |  | 
CC(N)CN(CC(C)N)CC(C)N (centres unmarked) [tris(2-aminopropyl)amine] | - ^d | - ^d | - ^d | - ^d | - ^d |  | substrate activity at MATE1 (in words) [1]: did not show any substrate activity; substrate activity at OCT3 (in words) [2, 6]: did not show any substrate activity; substrate activity at MATE2-K (in words) [3, 6]: did not show any substrate activity; substrate activity at OCT1 (in words) [4, 6]: did not show any substrate activity; substrate activity at OCT2 (in words) [5]: did not show any substrate activity
CCN(CC)CC [triethylamine] | 0.8 (0.2, 3) | 0.8 (0.3, 4) | 1.1 (0.2, 3) | 1.2 (0.1, 4) | 5.0 (1.3, 4) ^b | 1053 (±206) pmol/mg protein/min | 
NCCCCCCO [6-amino-1-hexanol] |  |  | 1.4 (0.3, 3) |  |  | 16,933 (±2577) pmol/mg protein/min | K m (±SEM) [1]: 253 (±47) μM; v max (±SEM) [1]: 14,115 (±1479) pmol/mg protein/min; substrate activity at MATE1 (in words) [1]: notable transport; K m (±SEM) [2]: 1168 (±151) μM; v max (±SEM) [2]: 4675 (±384) pmol/mg protein/min; substrate activity at OCT3 (in words) [2, 6]: notable transport; K m (±SEM) [4]: 487 (±171) μM; v max (±SEM) [4]: 1656 (±294) pmol/mg protein/min; substrate activity at OCT1 (in words) [4, 6]: notable transport; K m (±SEM) [5]: 1176 (±273) μM; substrate activity at OCT2 (in words) [5]: notable transport
NCCCCO [4-amino-1-butanol] | 1.0 (0.01, 3) |  | 0.9 (0.3, 3) |  |  | 3103 (±1458) pmol/mg protein/min | uptake ratio OCT3 (transporter-overexpressing cells over EV control cells): mean (±SD, N) ([2]; 2.5 μM substrate (§)): 1.1 (0.3, 3); uptake ratio OCT1 (transporter-overexpressing cells over EV control cells): mean (±SD, N) ([4]; 2.5 μM substrate (§)): 1.1 (0.3, 3); uptake ratio OCT2 (transporter-overexpressing cells over EV control cells): mean (±SD, N) ([5]; 2.5 μM substrate (§)): 5.4 (1.1, 3) ^a; K m (±SEM) [5]: 1243 (±938) μM
CNCCCO [3-methylamino-1-propanol] | 0.8 (0.2, 4) | 1.0 (0.2, 3) | 1.1 (0.4, 4) | 1.2 (0.2, 3) | 2.6 (1.0, 4) ^a |  | 
NCCCCCO [5-amino-1-pentanol] |  |  | 1.2 (0.6, 5) |  |  | 14,996 (±2181) pmol/mg protein/min | K m (±SEM) [1]: 1040 (±451) μM; v max (±SEM) [1]: 10,761 (±2694) pmol/mg protein/min; substrate activity at MATE1 (in words) [1]: notable transport; K m (±SEM) [2]: 5776 (±2458) μM; v max (±SEM) [2]: 5271 (±1641) pmol/mg protein/min; substrate activity at OCT3 (in words) [2, 6]: notable transport; K m (±SEM) [4]: 132 (±121) μM; v max (±SEM) [4]: 135 (±37) pmol/mg protein/min; substrate activity at OCT1 (in words) [4, 6]: notable transport; K m (±SEM) [5]: 1260 (±452) μM; substrate activity at OCT2 (in words) [5]: notable transport
NCCN(CCN)CCN [tris(2-aminoethyl)amine] |  |  |  |  |  |  | substrate activity at OCT3 (in words) [2, 6]: did not show any substrate activity
CC(C)N [isopropylamine] | 1.4 (0.2, 3) | 1.0 (0.2, 3) |  | 1.3 (0.2, 3) | 5.3 (1.7, 3) ^a |  | 
CN(CCCN)CCCN [3,3′-diamino-N-methyldipropylamin] |  |  |  |  |  |  | substrate activity at OCT3 (in words) [2]: did not show any substrate activity; substrate activity at MATE2-K (in words) [3]: did not show any substrate activity; substrate activity at OCT1 (in words) [4]: did not show any substrate activity
C[C@H](N)CCO [(S)-3-aminobutan-1-ol] |  |  |  |  |  |  | stereoselectivity OCT3 (uptake ratio of the more strongly transported enantiomer divided by that of the other) ([2]; label = favoured enantiomer): 1.2-fold for (S)
CC(C)(C)N [tert-butylamine] | 1.3 (0.3, 3) | 1.3 (0.5, 3) | 1.0 (0.2, 3) |  | 3.8 (1.6, 4) ^a |  | 
CCCCN [butylamine] | 1.0 (0.1, 4) | 1.5 (1.0, 5) | 1.2 (0.3, 4) |  | 6.4 (2.0, 5) ^b |  | 
CCN(CC)CCO [2-(diethylamino)ethanol] | 1 (0.13, 3) | 1.2 (0.1, 3) | 1.4 (0.2, 3) |  | 4.0 (1.5, 3) | 794 (±109) pmol/mg protein/min | 
